B1: Synechocystis sp. PCC 6803 Histidine kinase 2 (Hik2), reconstituted holoprotein (enzyme, UniProt P73276 1-434, looked up)
chain: MAGSISSMYSPSAGLISLCQSQVRLLQQGLRVDWCGVYLNQEETEQGLVPLVVSHGSTLVESESYGLISLPQGEVSPPMDDFSLPAVPVGVGQLSRRSRLEPPPFDADKRLVLPLVYGEEMVGLLVIHRSQGQWHGEEMMQLEAIAKSLAVACLLDQQQDWYRQAWEEQNQQYQWERQHWADLLHQLRNPLTALKTFSKLLLKRWHGDNKSQQVVEGIVRQGEHLQELLQSFEASQSQGPEAVPLLSSSPVTTIQVLPPADRVETMPLANFSLGEVLPPILLAHQAIAAERNITLTAQIALIDTVVMANRLALREVVNNLLDNGIKYTPNGGLVEVSLALEKVSSSGMDWATLAIADTGYGIPPEDQQKIFERNYRGVQGRGSINGTGLGLAIVADLVAQMGGKITVTSPNGLSRDPDQPGSTFTLWLRSGEQV
notes: Histidine kinase 2 (Hik2, slr1147), the cyanobacterial CSK homologue, Synechocystis sp; Each monomer carries one [3Fe-4S] cluster (holoprotein after reconstitution with iron and sulfide); also called Syn-CSK; holoSyn-CSK

Key:
Syn-CSK (Hik2) = target: T1, Syn-CSK (Hik2) (Synechocystis sp. PCC 6803, UniProt P73276); assay: autophosphorylation, autoradiography; type: biochemical; conditions: 0.5 mM, MgCl2, pH 8, 22 °C, reductant of the [3Fe-4S] cluster, inhibitor of autokinase activity
T1 construct: octamer

[1] = target: the molecule itself; assay: SEC; Superdex 200 10/300GL Increase; air-oxidized protein eluted with 20 mM Tris-HCl pH 8 and 10 mM NaCl (legend; methods say 20 mM NaCl), or the same buffer with 2 mM sodium dithionite; mass from a calibration curve

Molecule | autophosphorylation with [γ-^32P]ATP, autoradiography (Syn-CSK (Hik2)) | stoichiometry N [1]
Cc1c(C)c(O)c(C)c(C)c1O [duroquinol] | Treatment with reducing agents: dithionite, duroquinol, or decylPQH2 inhibit Syn-CSK | –
B1 | – | 8

From PMC6949291, “An evolutionarily conserved iron-sulfur cluster underlies redox sensory function of the Chloroplast Sensor Kinase” (Communications Biology, 2020)
